Patent publication US20150284331A1 (priority 2012, published 2015)
Positions count from the first letter of the chain named. Like-named read-outs stand apart in the source and are kept apart here.

How the values were obtained:
[1] = target: T1, cortex and hippocampus acetylcholinesterase of mice (Mus musculus, UniProt P21836); type: in vivo; settings: for Acetylcholinesterase activity (%) cortex / Acetylcholinesterase activity (%) hippocampus: 1 h, % of solvent control, Mean ± SEM
T1 construct: from tissue; host or cells: mouse cortex and hippocampus homogenate
T1 sequence (P21836 32-614): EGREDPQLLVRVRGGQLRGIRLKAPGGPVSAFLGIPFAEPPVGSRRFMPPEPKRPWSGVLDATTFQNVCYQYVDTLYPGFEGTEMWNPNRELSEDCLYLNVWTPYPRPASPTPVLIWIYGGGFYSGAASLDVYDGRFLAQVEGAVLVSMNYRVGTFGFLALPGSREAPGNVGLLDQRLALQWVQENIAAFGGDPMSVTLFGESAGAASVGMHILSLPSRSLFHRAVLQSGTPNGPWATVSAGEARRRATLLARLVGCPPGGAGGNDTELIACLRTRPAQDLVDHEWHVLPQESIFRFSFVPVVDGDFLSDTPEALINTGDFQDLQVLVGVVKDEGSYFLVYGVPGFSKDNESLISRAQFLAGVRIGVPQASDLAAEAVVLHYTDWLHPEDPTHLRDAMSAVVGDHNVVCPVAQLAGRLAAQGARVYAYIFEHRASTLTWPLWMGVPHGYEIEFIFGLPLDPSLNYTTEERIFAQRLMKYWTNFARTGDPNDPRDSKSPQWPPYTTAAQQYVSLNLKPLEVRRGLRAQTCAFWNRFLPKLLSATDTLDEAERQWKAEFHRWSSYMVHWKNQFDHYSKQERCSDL
Procedure: 5% DMSO was added and shaken sufficiently to dissolve the samples. Then 1% cosolvent EL (polyoxyethylated castor oil) was added and water was used to make up the remaining volumn to obtain 10 mg/mL sample. The samples were diluted gradually to 0.3 mg/mL, 1 mg/mL and 3 mg/mL. […] The samples were administrated orally according to 0.1˜mL/10 g of volumn to weight ratio. An equal amount of 5% DMSO and 1% EL solution was administered orally to the solvent control group.
(1) Acetylcholinesterase: mouse cortex and hippocampus. 1 h after orally administrated, the mice were decapitated. After the brains were taken out, the hippocampus and cortex were quickly stripped on the ice. To the cortex was added ice-cold 75 mM PBS, and homogenated to form 30× tissue homogenate and to the hippocampus was added ice-cold 75 mM PBS and homogenated to form 40× tissue homogenate. And finally 1/10 by volumn of OMPA was added and placed on the ice to be tested.
(2) Test Method: To the samples were added a reaction system containing PBS, H2O, S-Ach and DTNB. Except for the blank tube, to the rest of the tubes were added an appropriate amount of enzyme. The reaction was carried out at room temperature for 20 minutes. SDS was added to each tube to quench the reaction. An appropriate amount of enzyme was added to the blank tube. Absorbance of each tube was determined by UV-visible spectrophotometer (OD440 nm).

[2] = tested on: KM mice; assay: acute toxicities of compounds on mice; type: in vivo; settings: 100 mg/kg oral
Procedure: Sample processing: When getting samples, they were undissolved. […] The samples were suspensions. Experimental animals: KM mice, 22-29 g, half male and half female.
Experimental method: Mice were randomly divided into groups. 100 mg/kg of test compounds DC19 and DC20 were administered orally, respectively.

[3] = target: T2, butyrylcholinesterase (Rattus norvegicus, UniProt Q9JKC1); assay: inhibition of butyrylcholinesterase (rat serum); type: biochemical; settings: rat serum enzyme; final concentration 4×10−5 mol/L
T2 construct: Butyrylcholinesterase: rat serum; from tissue; host or cells: rat serum
T2 sequence (Q9JKC1 24-597): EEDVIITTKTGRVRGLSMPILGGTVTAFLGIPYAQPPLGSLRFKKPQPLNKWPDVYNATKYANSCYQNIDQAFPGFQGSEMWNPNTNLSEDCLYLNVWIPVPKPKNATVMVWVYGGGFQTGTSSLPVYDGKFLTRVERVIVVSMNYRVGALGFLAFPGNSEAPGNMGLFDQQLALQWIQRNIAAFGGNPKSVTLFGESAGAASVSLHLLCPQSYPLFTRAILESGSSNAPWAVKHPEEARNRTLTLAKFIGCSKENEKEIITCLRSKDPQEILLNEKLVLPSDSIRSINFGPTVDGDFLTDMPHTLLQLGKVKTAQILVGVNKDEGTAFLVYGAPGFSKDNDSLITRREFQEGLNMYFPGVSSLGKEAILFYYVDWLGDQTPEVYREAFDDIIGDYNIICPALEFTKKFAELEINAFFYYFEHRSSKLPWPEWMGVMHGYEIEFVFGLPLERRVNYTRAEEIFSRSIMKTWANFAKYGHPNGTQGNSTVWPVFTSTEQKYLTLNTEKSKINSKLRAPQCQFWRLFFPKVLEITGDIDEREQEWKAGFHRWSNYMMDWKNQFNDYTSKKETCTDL
Procedure: (§1) Sample processing: All samples were formulated as 10-2 mol/L solution by using 100% DMSO. 10-2 mol/L solution was used in microdetermination. 1 μL was taken to use in single tube experiment.
(§2) Solvent control: 0.4% DMSO was used in microdetermination. The inhibition ratio of the sample was obtained wherein the effect of solvent was deducted.
Butyrylcholinesterase: rat serum

[4] = target: T3, acetylcholinesterase (Rattus norvegicus, UniProt P37136); assay: biochemical; type: biochemical; settings: rat cortex enzyme
T3 construct: Acetylcholinesterase: rat cortex; from tissue; host or cells: rat cortex
T3 sequence (P37136 32-614): T1 sequence (P21836 32-614) with V59I, A109T, A128S, A144T, A271S, E313D, T392A, T467V, K478Q, Q499R
Procedure: as §1, §2
Acetylcholinesterase: rat cortex

`COc1cc2c(cc1OC)C(=O)C(CC1(F)CCN(Cc3ccccc3F)CC1)C2` (stereo not shown) [DC20, 2-((4-fluoro-1-(2-fluorobenzyl)piperidin-4-yl)methyl)-5,6-dimethoxy-2,3-dihydro-1H-inden-1-one] was tested, and the “inhibition of cortex acetylcholinesterase compared with the solvent control group” value ([1]; 0.3 mg/kg oral) was 14.67%, the “inhibition of hippocampus acetylcholinesterase compared with the solvent control group” value ([1]; 0.3 mg/kg oral) was 15.47% and the “Acetylcholinesterase activity (%) cortex” value ([1]; 0.3 mg/kg oral) was 85.33%. The “Acetylcholinesterase activity (%) hippocampus” value ([1]; 0.3 mg/kg oral) was 84.53%, the “inhibition effects on mouse cortex and hippocampus AChE compared with Donepezil” value ([1]; 1 mg/kg of DC20 versus 10 mg/kg Donepezil) was “comparable to those of 10 mg/kg of positive control drug Donepezil” and the “inhibition of cortex acetylcholinesterase compared with the solvent control group” value ([1]; 1 mg/kg oral) was 22.02%. For the same molecule, the “inhibition of hippocampus acetylcholinesterase compared with the solvent control group” value ([1]; 1 mg/kg oral) was 19.76%, the “Acetylcholinesterase activity (%) cortex” value ([1]; 1 mg/kg oral) was 77.98% and the “Acetylcholinesterase activity (%) hippocampus” value ([1]; 1 mg/kg oral) was 80.24%. The “inhibition effects on mouse cortex and hippocampus acetylcholinesterase (in words)” value ([1]; 1 mg/kg, 3 mg/kg and 10 mg/kg oral) was “significant inhibition effects”, the “inhibition of cortex acetylcholinesterase compared with the solvent control group” value ([1]; 3 mg/kg oral) was 42.95% and the “inhibition of hippocampus acetylcholinesterase compared with the solvent control group” value ([1]; 3 mg/kg oral) was 50.12%. The “Acetylcholinesterase activity (%) cortex” value ([1]; 3 mg/kg oral) was 57.05%, the “Acetylcholinesterase activity (%) hippocampus” value ([1]; 3 mg/kg oral) was 49.88% and the “inhibition of cortex acetylcholinesterase compared with the solvent control group” value ([1]; 10 mg/kg oral) was 66.02%. The “inhibition of hippocampus acetylcholinesterase compared with the solvent control group” value ([1]; 10 mg/kg oral) was 65.62%, the “Acetylcholinesterase activity (%) cortex” value ([1]; 10 mg/kg oral) was 33.98% and the “Acetylcholinesterase activity (%) hippocampus” value ([1]; 10 mg/kg oral) was 34.38%. The “overall activity compared with Donepezil” value ([1]; mouse cortex and hippocampus AChE, oral) was “better than that of Donepezil”, the response symptoms ([2]; female KM mouse) was 8 min, myasthenia, lacrimal and the response symptoms ([2]; male KM mouse) was 6 min, myasthenia, reduction in. For the same molecule, the “time of death after administration” value ([2]; male KM mouse) was “secretion, immobility; 24 h,”, the “butyrylcholinesterase inhibitory activity inhibition ratio (%)” value [3] was 71.58% and the “acetylcholinesterase inhibitory activity inhibition ratio (%)” value ([4]; final concentration 4×10−5 mol/L) was 82.04%. The IC50 ([4]; read-out: acetylcholinesterase inhibitory activity IC50 (nmol)) was 0.86 nM.
